Laboratory results taken from US12077503B2, “Substituted cyclic amides and their use as herbicides” (FMC CORPORATION, priority 2015, dated 2024).

Assays:
Type in all cases: in vivo
[1] = system: barnyardgrass (Echinochloa crus-galli); assay: Test G Pre-Emergence Protocol; conditions: Echinochloa crus-galli, pre-emergence, 312 h, evaluated after 13 days; for pest or weed control at 15.625 g/ha: 15.625 g ai/ha, read-out: Barnyard grass damage rating (100=total damage to plant; 0=no damage to plant); for pest or weed control at 62.5 g/ha: 62.5 g ai/ha, 100=total damage to plant, 0=no damage to plant, read-out: plant damage rating, Barnyardgrass; for pest or weed control at 250 g/ha: 250 g ai/ha, read-out: Barnyardgrass damage rating (100=total damage to plant; 0=no damage to plant)
In short: (§1)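 Seeds were sown in standard soil and kept one day in a glasshouse (24/16° C day/night, 14 h light, 65% humidity), then sprayed with compound in acetone/water (50:50) containing 0.5% Tween 20 at 15.625, 62.5 or 250 g/ha. Damage was scored after 13 days (0 = none, 100 = total).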

corn (Zea mays) [2] = assay: Test G Pre-Emergence Protocol; conditions: Zea mays, pre-emergence, 312 h, evaluated after 13 days; for plant injury at 15.625 g/ha: 15.625 g ai/ha; for plant injury at 15.625 g/ha / plant injury at 250 g/ha: read-out: Corn damage rating (100=total damage to plant; 0=no damage to plant); for plant injury at 62.5 g/ha: 62.5 g ai/ha, 100=total damage to plant, 0=no damage to plant, read-out: plant damage rating, Corn; for plant injury at 250 g/ha: 250 g ai/ha
In short: as §1

[3] = system: giant foxtail (Setaria faberi); assay: Test G Pre-Emergence Protocol; conditions: Setaria faberi, pre-emergence, 312 h, evaluated after 13 days; for pest or weed control at 15.625 g/ha: 15.625 g ai/ha; for pest or weed control at 15.625 g/ha / pest or weed control at 250 g/ha: read-out: Foxtail, Giant damage rating (100=total damage to plant; 0=no damage to plant); for pest or weed control at 62.5 g/ha: 62.5 g ai/ha, 100=total damage to plant, 0=no damage to plant, read-out: plant damage rating, Foxtail, Giant; for pest or weed control at 250 g/ha: 250 g ai/ha
In short: as §1

[4] = system: ivy-leaved morning glory (Ipomoea hederacea); assay: Test G Pre-Emergence Protocol; conditions: Ipomoea, pre-emergence, 312 h, evaluated after 13 days; for pest or weed control at 15.625 g/ha: 15.625 g ai/ha, read-out: Morning-glory, Ivy-leaved damage rating (100=total damage to plant; 0=no damage to plant); for pest or weed control at 62.5 g/ha: 62.5 g ai/ha, 100=total damage to plant, 0=no damage to plant, read-out: plant damage rating, Morningglory, Ivy-leaved; for pest or weed control at 250 g/ha: 250 g ai/ha, read-out: Morningglory, Ivy-leaved damage rating (100=total damage to plant; 0=no damage to plant)
In short: as §1

[5] = system: redroot pigweed (Amaranthus retroflexus); assay: Test G Pre-Emergence Protocol; conditions: Amaranthus retroflexus, pre-emergence, 312 h, evaluated after 13 days; for pest or weed control at 15.625 g/ha: 15.625 g ai/ha; for pest or weed control at 15.625 g/ha / pest or weed control at 250 g/ha: read-out: Pigweed, Redroot damage rating (100=total damage to plant; 0=no damage to plant); for pest or weed control at 62.5 g/ha: 62.5 g ai/ha, 100=total damage to plant, 0=no damage to plant, read-out: plant damage rating, Pigweed, Redroot; for pest or weed control at 250 g/ha: 250 g ai/ha
In short: as §1

[6] = system: velvetleaf (Abutilon theophrasti); assay: Test G Pre-Emergence Protocol; conditions: Abutilon theophrasti, pre-emergence, 312 h, evaluated after 13 days; for pest or weed control at 15.625 g/ha: 15.625 g ai/ha; for pest or weed control at 15.625 g/ha / pest or weed control at 250 g/ha: read-out: Velvetleaf damage rating (100=total damage to plant; 0=no damage to plant); for pest or weed control at 62.5 g/ha: 62.5 g ai/ha, 100=total damage to plant, 0=no damage to plant, read-out: plant damage rating, Velvetleaf; for pest or weed control at 250 g/ha: 250 g ai/ha
In short: as §1

[7] = system: barnyardgrass (Echinochloa crus-galli); assay: Test G Post-Emergence Protocol; conditions: Echinochloa crus-galli, post-emergence, 312 h; for pest or weed control at 15.625 g/ha: 15.625 g ai/ha, evaluated after 13 days (100=total damage to plant; 0=no damage to plant), read-out: Barnyardgrass damage rating; for pest or weed control at 62.5 g/ha: 62.5 g ai/ha, read-out: Barnyardgrass damage rating (100=total damage to plant; 0=no damage to plant); for pest or weed control at 62.5 g/ha / pest or weed control at 250 g/ha: evaluated after 13 days; for pest or weed control at 250 g/ha: 250 g ai/ha, read-out: damage to plant, Barnyardgrass (100=total damage to plant; 0=no damage to plant)
In short: (§2)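 Damage was rated 13 days after treatment from 0 (none) to 100 (plant killed). Compound was applied as a spray at 15.625, 62.5 or 250 g/ha in 50:50 acetone/water containing 0.5% Tween 20, onto 8-day-old potted plants kept in a glasshouse (24/16 °C, 14 h light, 65% humidity).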

corn (Zea mays) [8] = assay: Test G Post-Emergence Protocol; conditions: Zea mays, post-emergence, 312 h; for plant injury at 15.625 g/ha: 15.625 g ai/ha, evaluated after 13 days (100=total damage to plant; 0=no damage to plant), read-out: Corn damage rating; for plant injury at 62.5 g/ha: 62.5 g ai/ha, read-out: Corn damage rating (100=total damage to plant; 0=no damage to plant); for plant injury at 62.5 g/ha / plant injury at 250 g/ha: evaluated after 13 days; for plant injury at 250 g/ha: 250 g ai/ha, read-out: damage to plant, Corn (100=total damage to plant; 0=no damage to plant)
In short: as §2

[9] = system: giant foxtail (Setaria faberi); assay: Test G Post-Emergence Protocol; conditions: Setaria faberi, post-emergence, 312 h; for pest or weed control at 15.625 g/ha: 15.625 g ai/ha, evaluated after 13 days (100=total damage to plant; 0=no damage to plant), read-out: Foxtail, Giant damage rating; for pest or weed control at 62.5 g/ha: 62.5 g ai/ha, read-out: Foxtail, Giant damage rating (100=total damage to plant; 0=no damage to plant); for pest or weed control at 62.5 g/ha / pest or weed control at 250 g/ha: evaluated after 13 days; for pest or weed control at 250 g/ha: 250 g ai/ha, read-out: damage to plant, Foxtail, Giant (100=total damage to plant; 0=no damage to plant)
In short: as §2

[10] = system: ivy-leaved morning glory (Ipomoea hederacea); assay: Test G Post-Emergence Protocol; conditions: Ipomoea, post-emergence, 312 h; for pest or weed control at 15.625 g/ha: 15.625 g ai/ha, evaluated after 13 days (100=total damage to plant; 0=no damage to plant), read-out: Morningglory, Ivy-leaved damage rating; for pest or weed control at 62.5 g/ha: 62.5 g ai/ha, read-out: Morningglory, Ivy-leaved damage rating (100=total damage to plant; 0=no damage to plant); for pest or weed control at 62.5 g/ha / pest or weed control at 250 g/ha: evaluated after 13 days; for pest or weed control at 250 g/ha: 250 g ai/ha, read-out: damage to plant, Morningglory, Ivy-leaved (100=total damage to plant; 0=no damage to plant)
In short: as §2

[11] = system: redroot pigweed (Amaranthus retroflexus); assay: Test G Post-Emergence Protocol; conditions: Amaranthus retroflexus, post-emergence, 312 h; for pest or weed control at 15.625 g/ha: 15.625 g ai/ha, evaluated after 13 days (100=total damage to plant; 0=no damage to plant), read-out: Pigweed, Redroot damage rating; for pest or weed control at 62.5 g/ha: 62.5 g ai/ha, read-out: Pigweed, Redroot damage rating (100=total damage to plant; 0=no damage to plant); for pest or weed control at 62.5 g/ha / pest or weed control at 250 g/ha: evaluated after 13 days; for pest or weed control at 250 g/ha: 250 g ai/ha, read-out: damage to plant, Pigweed, Redroot (100=total damage to plant; 0=no damage to plant)
In short: as §2

[12] = system: velvetleaf (Abutilon theophrasti); assay: Test G Post-Emergence Protocol; conditions: Abutilon theophrasti, post-emergence, 312 h; for pest or weed control at 15.625 g/ha: 15.625 g ai/ha, evaluated after 13 days (100=total damage to plant; 0=no damage to plant), read-out: Velvetleaf damage rating; for pest or weed control at 62.5 g/ha: 62.5 g ai/ha, read-out: Velvetleaf damage rating (100=total damage to plant; 0=no damage to plant); for pest or weed control at 62.5 g/ha / pest or weed control at 250 g/ha: evaluated after 13 days; for pest or weed control at 250 g/ha: 250 g ai/ha, read-out: damage to plant, Velvetleaf (100=total damage to plant; 0=no damage to plant)
In short: as §2

Row | Structure (SMILES) | pest or weed control at 15.625 g/ha [1] | pest or weed control at 62.5 g/ha [1] | pest or weed control at 250 g/ha [1] | plant injury at 15.625 g/ha (corn (Zea mays) [2]) | plant injury at 62.5 g/ha (corn (Zea mays) [2]) | plant injury at 250 g/ha (corn (Zea mays) [2]) | pest or weed control at 15.625 g/ha [3] | pest or weed control at 62.5 g/ha [3] | pest or weed control at 250 g/ha [3] | pest or weed control at 15.625 g/ha [4] | pest or weed control at 62.5 g/ha [4] | pest or weed control at 250 g/ha [4] | pest or weed control at 15.625 g/ha [5] | pest or weed control at 62.5 g/ha [5] | pest or weed control at 250 g/ha [5] | pest or weed control at 15.625 g/ha [6] | pest or weed control at 62.5 g/ha [6] | pest or weed control at 250 g/ha [6] | pest or weed control at 15.625 g/ha [7] | pest or weed control at 62.5 g/ha [7] | further results
1 | CN1C[C@@H](c2ccc(C(F)(F)F)cc2)[C@H](C(=O)Nc2cccc(F)c2C(F)(F)F)C1=O (racemic) [Compound 1609] | 20% | 50% | 80% | 0% | 10% | 40% | 70% | 80% | 80% | 10% | 20% | 70% | 20% | 40% | 70% | 10% | 10% | 30% | 20% | 70% | pest or weed control at 250 g/ha [7]: 70%; plant injury at 15.625 g/ha (corn (Zea mays) [8]): 10%; plant injury at 62.5 g/ha (corn (Zea mays) [8]): 10%; plant injury at 250 g/ha (corn (Zea mays) [8]): 60%; pest or weed control at 15.625 g/ha [9]: 70%; pest or weed control at 62.5 g/ha [9]: 80%; pest or weed control at 250 g/ha [9]: 80%; pest or weed control at 15.625 g/ha [10]: 20%; pest or weed control at 62.5 g/ha [10]: 20%; pest or weed control at 250 g/ha [10]: 70%; pest or weed control at 15.625 g/ha [11]: 30%; pest or weed control at 62.5 g/ha [11]: 70%; pest or weed control at 250 g/ha [11]: 70%; pest or weed control at 15.625 g/ha [12]: 0%; pest or weed control at 62.5 g/ha [12]: 20%; pest or weed control at 250 g/ha [12]: 50%
2 | COC(=O)c1sccc1NC(=O)[C@@H]1C(=O)N(C)C[C@H]1c1ccc(C(F)(F)F)cc1 (racemic) [Compound 1621] | 0% | 0% | 0% | 0% | 0% | 0% | 0% | 0% | 0% | 0% | 0% | 0% | 0% | 0% | 0% | 0% | 0% | 0% | 10% | 30% | pest or weed control at 250 g/ha [7]: 30%; plant injury at 15.625 g/ha (corn (Zea mays) [8]): 0%; plant injury at 62.5 g/ha (corn (Zea mays) [8]): 0%; plant injury at 250 g/ha (corn (Zea mays) [8]): 0%; pest or weed control at 15.625 g/ha [9]: 10%; pest or weed control at 62.5 g/ha [9]: 40%; pest or weed control at 250 g/ha [9]: 40%; pest or weed control at 15.625 g/ha [10]: 0%; pest or weed control at 62.5 g/ha [10]: 0%; pest or weed control at 250 g/ha [10]: 0%; pest or weed control at 15.625 g/ha [11]: 0%; pest or weed control at 62.5 g/ha [11]: 20%; pest or weed control at 250 g/ha [11]: 10%; pest or weed control at 15.625 g/ha [12]: 0%; pest or weed control at 62.5 g/ha [12]: 0%; pest or weed control at 250 g/ha [12]: 0%
